From patent US12251370B2, “Small molecule inhibitors of the BfrB:Bfd interaction” (BOARD OF SUPERVISORS OF LOUISIANA STATE UNIVERSITY AND …, priority 2018, dated 2025)
“And” between values parts separate entries of the source, which are not always exact repeats. Equal values may be shown once.

What was measured:
[1] = test system: A. baumannii; assay: Growth curves and IC50 determination in A. baumannii; format: cell-based, Acinetobacter baumannii (AB5075); settings: Acinetobacter baumannii; AB5075; modified M63 media; 48 well-plates
Experimental: Pre-cultures (5 mL LB media) were grown for 12 h at 37° C. and 220 rpm in 50 mL conical tubes (VWR International, PA) covered with an air permeable membrane. The cells were then centrifuged at 4,000 rpm for 10 min, the resultant cell pellets washed twice in M63 media and then diluted in M63 media to OD600=0.01. Stock solutions (100 mM) of analog in DMSO were prepared weekly and stored at 4° C. Prior to initiating experiments in 96 well plates, the analog stock solution was serially diluted to make 10 mM or 1 mM working solutions in DMSO. A small volume of the appropriate working solution was transferred to a glass vial, diluted with DMSO to 30 μL, and then diluted to a final volume of 1.5 mL with pre-culture cell suspension with an OD600=0.01. The resultant cell suspension (200 μL) was transferred to a clear-bottom polystyrene 96 well plate (VWR), and incubated at 35° C. and 205 cpm for 13 h in an Epoch 2 microplate spectrophotometer (Biotek Instruments, Inc., Vermont). The growth curve in the presence of Ciprofloxacin was obtained in the same plate. […] MIC determinations were carried out using standard broth microdilution methods in 48 well plates and modified M63 media. Cells were incubated at 35° C.
This idea was tested with A. baumanni AB5075, a highly virulent isolate, which has been proposed as a model strain for the evaluation of pathogenesis and antimicrobial treatments.^66.

[2] = test system: P. aeruginosa cells; assay: microbe, parasite or virus in culture; format: cell-based, Pseudomonas aeruginosa; settings: 13 h
Experimental: These experiments were carried out in 96 well plates, as described above. […] The 500-fold diluted solution was centrifuged and the cell-free supernatant was analyzed for pyoverdin by fluorescence spectrophotometry in a Synergy H1 microplate reader (BioTek) with excitation at 400 nm and emission at λmax=455 nm. Full emission spectra (430-550 nm) were also recorded using a Perkin Elmer LS50B spectrophotometer.
As indicated above, genetic manipulations were used in prior work to delete the bfd gene (Δbfd) and evaluate the consequences of inhibiting the BfrB-Bfd interaction in P. aeruginosa.^18 Preventing the BfrB-Bfd interaction in the Δbfd mutant cells dysregulates iron homeostasis by causing the irreversible accumulation of iron in BfrB and the concomitant depletion of free iron levels in the cytosol. […] To analyze the levels of secreted pyoverdin, cells were pelleted and the supernatant was diluted 500-fold prior to measuring the fluorescence intensity at 455 nm (FIG. 7B).

[3] = test system: P. aeruginosa PAO1; assay: Effect of analogs on the potency of fluoroquinolone antibiotics, strain PAO1; format: cell-based, Pseudomonas aeruginosa; settings: PAO1
Experimental: The combined treatment was carried out similarly, ensuring that the final concentration of DMSO was 2%.

SMILES: O=C1NC(=O)c2c(NCCCc3cccc(O)c3)cccc21 [Analog 16, 4-((3-(3-Hydroxyphenyl)propyl)amino)isoindoline-1,3-dione]
- IC50 [1]: 128 µM
- viability at 125 µM ([2]; Pseudomonas aeruginosa, read-out: viable cells relative to untreated control): ~30%
- pyoverdin secreted, fluorescence normalized to viable cells (CFU/mL), relative to untreated control ([2]; analog 125 μM, emission 455 nm): ~4.5 fold and ~4 fold
- % survival, fold lower relative to ciprofloxacin alone ([3]; analog 16 125 μM + ciprofloxacin 0.25 μg/mL): approximately 50 fold
- cell survival, fold lower relative to fluoroquinolone alone ([3]; analog 16 125 μM + levofloxacin 0.5 μg/mL): approximately 50 fold
- cell survival, fold lower relative to fluoroquinolone alone ([3]; analog 16 125 μM + norfloxacin 0.9 μg/mL): approximately 50 fold
- survival relative to untreated control ([3]; analog 16 only, 125 μM, 18 h): ~30%
